Results as given in patent US12441734B2, “Ferroptosis inhibitor and use therefor” (JICHI MEDICAL UNIVERSITY, priority 2021, dated 2025).
Entries after “also recorded” stand apart in the source; their conditions may differ.

What was measured:
SH-SY5Y cells = test: Test VI: inhibition of rotenone-induced neuronal death (LDH assay); type: cell-based, human; set-up: key: ++: the case where a concentration-dependent inhibitory effect on rotenone-induced cell death was able to be confirmed twice; +: In the third test, the case where the concentration-dependent inhibitory effect was able to be confirmed; ±: the case where no concentration-dependent inhibitory effect was able to be confirmed; −: The case where any inhibitory effect on rotenone-induced cell death was able to be confirmed in none of the two tests; conditions: rotenone 1 μM, compound 10 nM-10 μM (Apo 0.1 nM-10 μM), 48 hours
Method: After the completion of culture, rotenone-induced cell death was measured using Cytotoxicity LDH Assay Kit-WST (Dojindo Laboratories). […] The test was conducted twice, and the case where a concentration-dependent inhibitory effect on rotenone-induced cell death was able to be confirmed twice was rated as (++). If the inhibitory effect was confirmed in one of the two tests and no inhibitory effect was confirmed in the other test, the third test was conducted. In the third test, the case where the concentration-dependent inhibitory effect was able to be confirmed was rated as (+), and the case where no concentration-dependent inhibitory effect was able to be confirmed was rated as (±). The case where any inhibitory effect on rotenone-induced cell death was able to be confirmed in none of the two tests was rated as (−).

[1] = test system: mitochondrial hepatopathy patient cells (ME263-1); test: Test I: suppression of RSL-3-induced cell death, mitochondrial hepatopathy patient cells; type: cell-based, human; conditions: 10-140 nM RSL-3 coadded with drug; FIG. 9B
[2] = test system: mitochondrial cardiomyopathy patient cells (ME250-1); test: Test I: suppression of BSO-induced cell death, mitochondrial cardiomyopathy patient cells; type: cell-based, human; conditions: 50-200 μM BSO alone or coadded with drug; FIG. 5B
[3] = test system: Kearns-Sayre syndrome (KSS) patient cells (ME130-1); test: Test I: suppression of BSO-induced cell death, KSS patient cells; conditions: BSO coadded with drug; FIG. 7B
[4] = test system: mitochondrial cardiomyopathy patient cells (ME250-1); test: Test I: suppression of RSL-3-induced cell death, mitochondrial cardiomyopathy patient cells; type: cell-based, human; conditions: 10-140 nM RSL-3 alone or coadded with drug; FIG. 8B
Text: (§1) In the drawing, the abscissa depicts test compounds, and the ordinate depicts the cell viability (%) of each treated plot when the number of live cells in a control non-supplemented with RSL-3 is defined as 100%.

[5] = test system: human liver cancer cell line (Huh7); test: Test V: suppression of RSL-3-induced cell death in liver cancer cell system (LDH, MTT); type: cell-based; set-up: key to LDH (LDH activity, cell death): relative to control without RSL-3 (= 1); conditions: for viability at 1 µM: Homo sapiens, Huh-7, read-out: MTT (cell proliferation and cell viability); for viability at 1 µM / LDH (LDH activity, cell death) / MTT (cell proliferation and cell viability): Huh7, test compound 1 μM (GSK872 5 μM) 1 hour, then RSL-3 0.5 μM 24 hours, relative value, control non-supplemented with RSL-3 = 1; for cell death induced by RSL-3 (in words): Huh7, RSL-3 0.5 μM
Method: The ferroptosis inducer used was RSL-3.
At the stage where 70% confluency was attained, the medium was replaced with the medium for the test, and DMSO or each test compound (final concentration of GSK872: 5 μM, and final concentration of the other compounds: 1 μM) was added to the cells in each well, which were then cultured for 1 hour. Then, the ferroptosis inducer (final concentration: 0.5 μM) was added to the cells in each well, which were then cultured for 24 hours. After the completion of culture, cell death suppressive activity was measured with lactate dehydrogenase (LDH) activity as an index while cell proliferation and cell viability were measured with activity of reducing yellow tetrazolium salt (MTT) into formazan as an index.
The values in the table are relative values when the LDH activity and MTT value of a control non-supplemented with RSL-3 are each defined as 1.

[6] = test system: mitochondrial hepatopathy patient cells (ME263-1); test: Test I: suppression of BSO-induced cell death, mitochondrial hepatopathy patient cells; conditions: 50-200 μM BSO coadded with drug; FIG. 6B
[7] = test system: Leigh syndrome patient cells (LS^ND3); test: Test I: suppression of BSO-induced cell death, Leigh syndrome patient cells; type: cell-based, human; conditions: 100 μM BSO alone or coadded with inhibitor (1 μM; GSK872 1-10 μM, v-VAD 1, 10 μM), 48 hours; FIG. 1B, 3B
Text: (§2) In the drawing, the abscissa depicts test compounds, and the ordinate depicts the cell viability (%) of each treated plot when the number of live cells in a control non-supplemented with BSO is defined as 100%.
as §2

[8] = test system: Leigh syndrome patient cells (LS^ND3); test: Test I: suppression of RSL-3-induced cell death, Leigh syndrome patient cells; type: cell-based, human; conditions: 50 nM RSL-3 alone or coadded with inhibitor, 48 hours, FIG. 2B, 4B
Text: as §1, §1

dopamine D2 receptor = dopamine D2 receptor (Homo sapiens (Human), UniProt P14416); test: Test IV: dopamine D2 receptor binding activity (GeneBLAzer D2-Gqo5-NEAT-bla CHO-K1 Cell-based Assay); conditions: for Dopamine D2 receptor binding activity, Activity intensity: CHO-K1 reporter cells, 5 hours
dopamine D2 receptor, sequence (P14416 whole entry): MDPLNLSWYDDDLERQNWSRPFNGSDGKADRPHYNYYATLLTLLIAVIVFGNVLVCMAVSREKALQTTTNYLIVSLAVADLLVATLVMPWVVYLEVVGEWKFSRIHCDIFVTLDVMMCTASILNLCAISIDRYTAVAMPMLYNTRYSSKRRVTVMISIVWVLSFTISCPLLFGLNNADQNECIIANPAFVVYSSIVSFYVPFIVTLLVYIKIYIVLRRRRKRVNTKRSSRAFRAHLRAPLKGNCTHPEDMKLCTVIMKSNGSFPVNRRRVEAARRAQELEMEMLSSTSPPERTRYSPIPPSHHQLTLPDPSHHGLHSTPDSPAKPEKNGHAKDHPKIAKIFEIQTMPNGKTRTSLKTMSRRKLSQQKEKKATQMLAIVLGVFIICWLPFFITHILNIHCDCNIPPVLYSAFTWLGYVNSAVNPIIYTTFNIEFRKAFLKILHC
Method: In this test, the dopamine D2 receptor binding activity of each test compound was measured using GeneBLAzer D2-Gqo5-NEAT-bla CHO-K1 Cell-based Assay (Thermo Fisher Scientific, Inc.). The CHO cells are designed such that a signal transduction pathway is activated by addition of a drug to express a reporter gene (P lactamase). […] Therefore, the binding activity of the test compound can be measured by measuring a blue fluorescence/green fluorescence ratio. The CHO cells were inoculated at 10,000 cells/well to a 384-well plate and cultured for 16 to 20 hours in a CO2 incubator. […] A substrate mix was added to the cells and incubated at room temperature for 2 hours. […] The respective EC50 values of the test compounds were determined from the measured fluorescence ratios using GraphPad Prism 8.

[9] = test system: Kearns-Sayre syndrome (KSS) patient cells (ME130-1); test: Test I: suppression of RSL-3-induced cell death, KSS patient cells; type: cell-based, human; conditions: 10-140 nM RSL-3 coadded with drug; FIG. 10B
[10] = test system: normal cells (Promo1 cells); test: Test I: RSL-3 and test compounds on normal cells; type: cell-based, human; conditions: RSL-3 alone or coadded with inhibitor, 48 hours; FIG. 4A, 8A
Text: as §1, §1, §1

[11] = test system: Leigh syndrome patient cells (KCMC10); test: Test III: suppression of RSL-3-induced ferroptosis, Leigh syndrome patient cells; type: cell-based, human; conditions: 100 nM RSL-3 coadded with test compound; FIG. 34
Text: (§3) Apomorphine and idebenone approved as a therapeutic drug for Leber's hereditary optic neuropathy in the Europe were used as control drugs.
(§4) In the drawing, A depicts the results obtained using compounds D8, D9, D10, D18, D20, D26, and D36, and B depicts the results obtained using compounds D37, D38, D39, D40, D41, D42, and D43. In the drawing, the abscissa depicts test compounds, and the ordinate depicts the cell viability (%) of each treated plot when the number of live cells in a control non-supplemented with RSL-3 is defined as 100%.

[12] = test system: MELAS patient cells (ME169); test: Test III: suppression of RSL-3-induced ferroptosis, MELAS patient cells; type: cell-based, human; conditions: 100 nM RSL-3 coadded with test compound; FIG. 35
Text: as §3, §4

[13] = test system: MELAS patient cells (ME169); test: Test III: suppression of BSO-induced ferroptosis, MELAS patient cells; type: cell-based, human; conditions: 80 μM BSO coadded with test compound; FIG. 33
Text: as §3
as §4, with “BSO” for “RSL-3”

[14] = test system: Leigh syndrome patient cells (KCMC10); test: Test III: suppression of BSO-induced ferroptosis, Leigh syndrome patient cells; type: cell-based, human; conditions: for cell death ascribable to ferroptosis induced by BSO: 100 μM BSO coadded with test compound, FIG. 32; for EC50: Homo sapiens, read-out: EC50 (50% effective concentration of the suppressive effect on cell death ascribable to ferroptosis induced by BSO); for EC50 / ferroptosis inhibitory effect (judged from EC50 value): Leigh syndrome patient cells (KCMC10), BSO; for ferroptosis inhibitory effect (judged from EC50 value): Table 3
Text: as §3
as §4, with “BSO” for “RSL-3”

CN1CCc2cccc3c2[C@H]1Cc1ccc(O)c(O)c1-3 [Apomorphine, apomorphine]
Inhibitory effect on rotenone-induced cell death (SH-SY5Y cells): ±
cell death induced by RSL-3 (cell viability) [1]: the same or similar results
cell death induced by BSO (cell viability) [2]: suppressed
cell death induced by BSO (cell viability) [3]: the same or similar results
cell death induced by RSL-3 (cell viability) [4]: suppressed
viability at 1 µM [5]: 67%
cell death induced by RSL-3 (in words) [5]: suppressed
LDH (LDH activity, cell death) [5]: 1.82
cell death induced by BSO (cell viability) [6]: the same or similar results
cell death induced by BSO (cell viability) [7]: suppressed
cell death induced by RSL-3 (cell viability) ([8]; listed as Apo): the same or similar results; also recorded: same or similar tendency as above was more strongly confirmed
Dopamine D2 receptor binding activity, Activity intensity (dopamine D2 receptor): ++
cell death induced by RSL-3 (cell viability) [9]: the same or similar results
cell death (cell viability) in normal cells, RSL-3 [10]: suppressed

CCCCS(=N)(=O)CCC(N)C(=O)O [BSO, L-buthionine-(S,R)-sulfoximine]
cell death induced by BSO (cell viability) [2]: induced
cell death induced by BSO (cell viability) [7]: induced

COc1ccc2c(c1OC)C[C@@H]1c3c(cc4c(c3-2)OCO4)CCN1C [D8]
Inhibitory effect on rotenone-induced cell death (SH-SY5Y cells): ++
cell death ascribable to ferroptosis induced by RSL-3 [11]: suppressed
cell death ascribable to ferroptosis induced by RSL-3 [12]: suppressed
cell death ascribable to ferroptosis induced by BSO [13]: markedly suppressed
viability at 1 µM [5]: 56%
LDH (LDH activity, cell death) [5]: 2.46
dopamine D2 receptor binding activity (in words) (dopamine D2 receptor): no or little
Dopamine D2 receptor binding activity, Activity intensity (dopamine D2 receptor): −
cell death ascribable to ferroptosis induced by BSO [14]: markedly suppressed
EC50 [14]: 180 nM
ferroptosis inhibitory effect (judged from EC50 value) [14]: particularly high

COc1cc2c3c(c1O)-c1c(ccc(OC)c1OC)CC3N(C)CC2 (centres unmarked) [D26]
Inhibitory effect on rotenone-induced cell death (SH-SY5Y cells): ±
cell death ascribable to ferroptosis induced by RSL-3 [11]: suppressed
cell death ascribable to ferroptosis induced by RSL-3 [12]: suppressed
cell death ascribable to ferroptosis induced by BSO [13]: markedly suppressed
viability at 1 µM [5]: 58%
LDH (LDH activity, cell death) [5]: 4.85
dopamine D2 receptor binding activity (in words) (dopamine D2 receptor): no or little
Dopamine D2 receptor binding activity, Activity intensity (dopamine D2 receptor): −
cell death ascribable to ferroptosis induced by BSO [14]: markedly suppressed
EC50 [14]: 289 nM

CCCCOc1ccc2c(c1O)-c1cccc3c1[C@@H](C2)N(C)CC3.Cl [D36]
Inhibitory effect on rotenone-induced cell death (SH-SY5Y cells): ++
cell death ascribable to ferroptosis induced by RSL-3 [11]: suppressed
cell death ascribable to ferroptosis induced by RSL-3 [12]: suppressed
cell death ascribable to ferroptosis induced by BSO [13]: markedly suppressed
viability at 1 µM [5]: 81%
LDH (LDH activity, cell death) [5]: 0.91
dopamine D2 receptor binding activity (in words) (dopamine D2 receptor): no or little
Dopamine D2 receptor binding activity, Activity intensity (dopamine D2 receptor): −
cell death ascribable to ferroptosis induced by BSO [14]: markedly suppressed
EC50 [14]: 123 nM
ferroptosis inhibitory effect (judged from EC50 value) [14]: particularly high

CC(=O)N(O)CCCCCNC(=O)CCC(=O)N(O)CCCCCNC(=O)CCC(=O)N(O)CCCCCN [DFO, deferoxamine]
cell death induced by BSO (cell viability) [7]: suppressed
cell death induced by RSL-3 (cell viability) [8]: the same or similar results

CCOC(=O)c1ccc(NC2CCCCC2)c(N)c1 [Fer-1, ferrostatin-1]
cell death induced by RSL-3 (cell viability) [1]: the same or similar results
cell death induced by RSL-3 (cell viability) [4]: suppressed
cell death induced by RSL-3 (in words) [5]: suppressed
LDH (LDH activity, cell death) [5]: 2.50
MTT (cell proliferation and cell viability) [5]: 0.86
cell death induced by BSO (cell viability) [7]: suppressed
cell death induced by RSL-3 (cell viability) [8]: the same or similar results; also recorded: same or similar tendency as above was more strongly confirmed
cell death induced by RSL-3 (cell viability) [9]: the same or similar results
cell death (cell viability) in normal cells, RSL-3 [10]: suppressed

CC(C)S(=O)(=O)c1ccc2nccc(Nc3ccc4scnc4c3)c2c1 [GSK872]
viability at 1 µM [5]: 38%
LDH (LDH activity, cell death) [5]: 10.84
cell death induced by BSO (cell viability) [7]: not suppressed
cell death induced by RSL-3 (cell viability) [8]: same or similar tendency as above was more strongly confirmed
cell death (cell viability) in normal cells, RSL-3 [10]: similarly induced

COC1=C(OC)C(=O)C(CCCCCCCCCCO)=C(C)C1=O [Ide, idebenone]
cell death induced by BSO (cell viability) [2]: suppressed
cell death induced by BSO (cell viability) [3]: the same or similar results
cell death induced by BSO (cell viability) [6]: the same or similar results

Clc1cccc(CN=C2Nc3ccccc3NC23CCNCC3)c1 [Lip-1, liproxstatin]
cell death induced by BSO (cell viability) [7]: suppressed
cell death induced by RSL-3 (cell viability) [8]: the same or similar results

COC(=O)c1ccc([C@@H]2c3[nH]c4ccccc4c3C[C@@H](C(=O)OC)N2C(=O)CCl)cc1 [RSL-3, reference compound]
cell death induced by RSL-3 (cell viability) [4]: induced
cell death induced by RSL-3 (in words) [5]: induced
LDH (LDH activity, cell death) [5]: 10.67
MTT (cell proliferation and cell viability) [5]: 0.45
cell death (cell viability) in normal cells, RSL-3 [10]: induced
